For this data set, the system named is CHIKV. Type of data set: cell-based, chikungunya virus.
As for “s25624 (sense GGAATGGTGTTGATACAAA; chemistry not given here) [reference compound]”, the Score_si3 is on record as -0.7.
Turning to “s27208 (sense GACACTTGTTTCTTACCTA; chemistry not given here) [reference compound]”, the Score_si4 amounted to 0.22.
In turn, “s24801 (sense CCAAGGTCCTGAGGTCTAA; chemistry not given here)” gave a Score_si3 of 1.43.
For “Hs_PITRM1_3 (CAGCGTTGAAAGTTTCCGATA; chemistry not given here) [reference compound]”, the Score_si2 is listed as -1.16.
Substance “Hs_GRB10_4 (sense GTGAATTGTTGGAGAATGTAA; chemistry not given here)” returned a Score_si3 of 0.73.
For “s26119 (sense CATGGATGAGTTTACCCAA; chemistry not given here) [reference compound]”, the Score_si3 is -0.65.
Substance “Hs_PEX19_4 (CTGGATCTTATGCAGCAGCTA; chemistry not given here)” displayed a Score_si2 of 0.89.
Take “s1523 (sense CCGGCATCTTTGCTACCTA; chemistry not given here)”: the Score_si4 was 0.87.
The substance “s15685 (sense GGATGAGAGTCGCACCTAT; chemistry not given here)” gave a Score_si1 of 2.03.
In the case of “Hs_CLCN6_4 (sense AAGATGTGAATTCAAGTATCA; chemistry not given here)”, the Score_si1 turned out to be 2.72.
For the substance “s1907 (sense GAACTTAGCTAAATTGACT; chemistry not given here)”, the Score_si4 was found to be 0.58.
For “s16461 (GGTCAATCCTAGTATCTCT; chemistry not given here)”, the Score_si3 is recorded as 0.88.
“Hs_ZNF261_1 (AAGGTCTTATCTGAAAGGTAA; chemistry not given here) [reference compound]” gave a Score_si1 of -2.35.
Substance “s8542 (AGGTTTTAACGATTTGTTT; chemistry not given here)” returned a Score_si2 of 0.14.
Regarding “s27642 (sense GCATGATGTTCGTCCGCAA; chemistry not given here)”, the Score_si4 is recorded as 1.26.
Turning to “s31318 (GTACATCTTCGAATACGAT; chemistry not given here)”, the Score_si2 was determined as 1.43.
“s50642 (sense CCTTCATGGTGGGACTGTA; chemistry not given here)” came in with a Score_si3 of 0.69.
On to “Hs_RAD51L3_5 (sense CTGGAAGAGGTAGCTCAGAAA; chemistry not given here)”, for which the Score_si1 was determined as 2.71.
For the substance “s37727 (GTAGCAGTGTGGTAGGATA; chemistry not given here)”, the Score_si4 is -0.44.
“s25039 (sense CAAATTTCCTGTTAATCGA; chemistry not given here) [reference compound]” yielded a Score_si3 of -0.41.
In turn, “Hs_PRSS15_4 (sense CCGGGACATCATTGCCTTGAA; chemistry not given here)” returned a Score_si1 of 1.74.
“Hs_PPIL2_1 (CAGGGACAGCCTATTTATACA; chemistry not given here)”: the Score_si4 was 0.92.
For “Hs_ACYP1_1 (AAGGATTACCACTGTACACAA; chemistry not given here) [reference compound]”, the Score_si1 is -2.79.
For the substance “Hs_CNOT1_1 (sense CAGCTGGAATGGCTATGATTA; chemistry not given here)”, the Score_si2 is on record as 2.61.
On to “Hs_PRSS15_2 (sense CAGCCTTATGTCGGCGTCTTT; chemistry not given here)”, for which the Score_si2 is 1.66.
As to “Hs_SAFB_2 (sense AAGGTGGTAATCCTGACGAAA; chemistry not given here)”, the Score_si2 was 0.95.
Same read-out and setting: the same measure for “Hs_GPSN2_1 (sense CTGGATCGGTTTCGCCATCAT; chemistry not given here)”: 2.41.
For “s5083 (sense CGTCGTCACTAACAGTCAA; chemistry not given here)”, the Score_si3 is given as 1.11.
For “Hs_NDUFA2_2 (TCCACTGAGGATTAAGAGCAA; chemistry not given here)”, the Score_si1 was found to be 2.51.
Substance “Hs_RAB3D_1 (sense CAGGCCCTGTTTAGCTGTTTA; chemistry not given here)” gave a Score_si1 of 1.76.
Take “Hs_PTPN6_5 (sense CCGGAACAAATGCGTCCCATA; chemistry not given here)”: the Score_si4 is on record as 1.05.
In the case of “s50141 (sense AGATACCTTTATGAATATA; chemistry not given here) [reference compound]”, the Score_si3 is -0.76.
“s31789 (AGGACATTATCAACCCGGA; chemistry not given here)”: the Score_si3 was determined as 1.5.
“Hs_THRAP6_6 (sense CTGAGATTGGTATATGACAAA; chemistry not given here) [reference compound]” gave a Score_si1 of -1.48.
Take “Hs_GSTP1_2 (sense CCAGATCTCCTTCGCTGACTA; chemistry not given here)”: the Score_si1 came to 2.46.
“Hs_ROCK1_1 (sense ACGGTTAGAACAAGAGGTAAA; chemistry not given here)”: the Score_si4 was 0.5.
“Hs_FLT4_8 (sense CACCGTGTGGGCTGAGTTTAA; chemistry not given here)”: the Score_si2 is 1.07.
In turn, “s7005 (sense AGAAAAATCTCAAGGAAAA; chemistry not given here)” registered a Score_si3 of 1.86.
The substance “Hs_U2AF2_3 (TAAGACGAATTTGCTCATTAA; chemistry not given here)” came in with a Score_si1 of 2.74.
“Hs_P4HB_5 (CAGGACGGTCATTGATTACAA; chemistry not given here)” gave a Score_si2 of 1.15.
With “Hs_ULK2_6 (CAGCCTGAGATACGTGCCTTA; chemistry not given here) [reference compound]”, the Score_si1 was -2.62.
Substance “s25184 (sense CCCATCAACTTCTCCGTGA; chemistry not given here)” returned a Score_si4 of 0.53.
“s1522 (sense GGATCAAGCTGCCCATCTA; chemistry not given here)” yielded a Score_si2 of 1.17.
The substance “Hs_CLK1_4 (sense CCGTATTTCCAACACACGATA; chemistry not given here)” gave a Score_si4 of 0.91.
For the substance “s6098 (sense CCTTTAACGTGGACATGTA; chemistry not given here)”, the Score_si1 turned out to be 1.88.
With “Hs_HSPE1_6 (sense GAGGGAGTAATGGCAGGACAA; chemistry not given here)”, the Score_si1 amounted to 2.37.
Consider “Hs_APEX2_3 (AGGGCCCTTCATCGATAGCTA; chemistry not given here) [reference compound]”, for which the Score_si1 was -3.29.
The substance “Hs_TADA3L_2 (sense ACCGACTGGCAGGATAAGAAA; chemistry not given here) [reference compound]” registered a Score_si1 of -1.99.
In turn, “s20629 (sense GGAGAAAGAATCAACGGAA; chemistry not given here)” registered a Score_si2 of 2.
For the substance “s21625 (sense GCAGCCTTGTTGCTCTTAA; chemistry not given here)”, the Score_si2 was 1.37.
The substance “s21554 (sense CAGTATTGGTTATGAGTCT; chemistry not given here)” gave a Score_si4 of 0.67.
For the substance “s3162 (CATTTCGACTGGATCATAT; chemistry not given here)”, the Score_si1 is listed as 1.86.
In turn, “Hs_C14orf160_1 (AAAGATTTGAATTATAAATAA; chemistry not given here) [reference compound]” registered a Score_si3 of -1.03.
For “Hs_DKFZP564C186_1 (AAGGATGAGGACAGGAAGCAA; chemistry not given here)”, the Score_si1 came to 2.71.
The substance “Hs_CCNF_3 (sense CACAGATGGCGTCAATGTGAA; chemistry not given here)” showed a Score_si2 of 1.09.
On to “Hs_GFRA4_2 (sense CAGGTCAGAGACCATCCAGAA; chemistry not given here)”, for which the Score_si1 turned out to be 1.82.
“s11517 (sense GCGAAGTGTTTGTAAATCA; chemistry not given here)” displayed a Score_si4 of 1.19.
Consider “Hs_PEX19_2 (TCCCTTGAGTATTTCAATGTA; chemistry not given here)”, for which the Score_si3 is 0.58.
Consider “s3113 (GGCGAGAGGGTATCAAGTA; chemistry not given here)”, for which the Score_si4 is 1.79.
As for “s195100 (sense GGGTGAATGTAGACCCTGA; chemistry not given here)”, the Score_si3 worked out at 1.95.
The substance “Hs_CAB39L_2 (GCCAATGTCTTTGGACTGTAA; chemistry not given here)” showed a Score_si1 of 2.37.
For “Hs_EIF2B5_2 (CAAAGTGAAGATGAAAGGTTA; chemistry not given here)”, the Score_si1 is listed as 1.62.
“Hs_ADPRHL1_1 (CCCGACAATTATGATGCAGAA; chemistry not given here) [reference compound]” yielded a Score_si1 of -2.15.
For “s16045 (GGTTTATCCACGGTAAAGA; chemistry not given here) [reference compound]”, the Score_si4 is -0.44.
“s28294 (sense CATTCTGTGGTGAAACATT; chemistry not given here)” yielded a Score_si1 of 1.28.
On to “Hs_ZA20D1_2 (CAGGATGACATCGTTCAAGAA; chemistry not given here)”, for which the Score_si3 is recorded as 1.15.
“Hs_FLT4_4 (sense CGCGCTGATGTCGGAGCTCAA; chemistry not given here)”: the Score_si1 is 1.18.
As to “s26802 (sense ACATCTCAGGGACCCATTT; chemistry not given here)”, the Score_si4 was determined as 1.65.
On to “Hs_NRCAM_4 (AGGGTGGTAAATATCCAGTTA; chemistry not given here)”, for which the Score_si1 is reported as 1.08.
With “Hs_KIAA0947_2 (sense CTGGCAGTTTATTGCTCTTAA; chemistry not given here)”, the Score_si1 is listed as 2.71.
For “Hs_SHC2_11 (sense TCGGTGCTGGTGGAACAGAAA; chemistry not given here)”, the Score_si1 stood at 2.36.
The substance “s18239 (CGGTGACTCTTTATGCACA; chemistry not given here)” showed a Score_si2 of 1.37.

The values are drawn from paper PMC4865845, “A human genome-wide loss-of-function screen identifies effective chikungunya antiviral drugs” (Nature Communications, 2016).
